Tested on: yeast genes (level of expressed mRNA)
Assay: DNA chip analysis of expressed mRNA of yeast genes after 2 h culture with a toxic chemical substance
Assay type: cell-based, Saccharomyces cerevisiae S288C
Method: Yeast (Saccharomyces cerevtisiae S288C (α SUC2mal mel gap2 CUP1)) were cultured at 25° C. on YPD medium (yeast extract 1%, polypepton 2%, glucose 2%). One of toxic chemical substances was added to the cell at logarithmic growth phase, and the cell was further cultured for two hours. Cell was cultured without any chemical substance in the same condition, and was used as control. Concentrations of the chemical substances were defined to inhibit the growth of the yeast but not lead to death.
After the completion of cultivation, the culture was centrifuged to collect the cells. To the cells, sodium acetate buffer (50 mM sodium acetate, 10 mM EDTA, 1% SDS) was added, and the mixture was shaken at 65° C. for five minutes, followed by returning to room temperature, and obtaining the supernatant, which procedure was repeated two times. To the supernatant, ½ amount of a solution of phenol/chloroform was added, and the mixture was centrifuged to give a supernatant, which was added with an equal amount of chloroform, and the mixture was centrifuged to give a supernatant. To the supernatant, an equal amount of isopropanol containing 0.3 M sodium acetate was added, and the mixture was allowed to stand at room temperature for 30 minutes, after which the mixture was centrifuged to give a sediment of the whole RNAs. Seventy % ethanol was added to the sediment, and the mixture was again centrifuged to give a sediment, which was then dried and dissolved in water. mRNA was isolated from the whole RNAs as followings. In view of the fact that a poly A chain is attached to the 3′ terminus of mRNA, a polynucleotide having a poly T structure which was immobilized on the surface of latex beads was used to trap the mRNA, and then the mRNA was washed and eluted with spine column (Oligotex-dT30<Super>mRNA Purification Kit, Takara). Reverse transcription of the mRNA was conducted with a reverse transcriptase (Super Script II Reverse Transcriptase; catalogue No. 18064-014, GibcoBRL) using fluorescence-labeled nucleotides to give cDNAs that were introduced with Cy3-dUTP or Cy5-dUTP during the reverse transcription.
The labeled cDNAs were dissolved in TE buffer (10 mM Tris-HCl/1 mM EDTA, pH8.0), and the solution was dropped on the DNA chip containing the whole genes of yeast (DNA Chip Research Inc. Japan) so that the cDNAs were hybridized on the DNA chip at 65° C. for over 12 hours. The fluoresces intensity of the DNA chip was read with a scanner, and the ratio relative to the fluorescence intensity resulting from the absence of chemical substance was estimated as the following, which is shown in Tables 1 to 9: [formula]
In the Tables, “Intensity” indicated in the rightmost column is a value of the level of expressed mRNA of each gene in control cells as divided by the average level of the expressions of the whole genes.

COc1cc(CNC(=O)CCCCC=CC(C)C)ccc1O [(12), 8-methyl-N-vanillyl-6-nonenamide]
1.5: level of expressed mRNA in the presence of chemical substance/in its absence (gene YEL011W)
1.7: level of expressed mRNA in the presence of chemical substance/in its absence (gene YCL009C) | level of expressed mRNA in the presence of chemical substance/in its absence (gene YER026C)
0.9: The level of expressed mRNA in the presence of chemical substance/absence: YAL018C (gene YAL018C) | The level of expressed mRNA in the presence of chemical substance/absence: YAR047C (gene YAR047C) | The level of expressed mRNA in the presence of chemical substance/absence: YBL044W (gene YBL044W) | The level of expressed mRNA in the presence of chemical substance/absence: YBR124W (gene YBR124W) | level of expressed mRNA in the presence of chemical substance/in its absence (gene YBR222C) | The level of expressed mRNA in the presence of chemical substance/absence: YCL044C (gene YCL044C) | level of expressed mRNA in the presence of chemical substance/in its absence (gene YCR048W) | The level of expressed mRNA in the presence of chemical substance/absence: YDL089W (gene YDL089W) | The level of expressed mRNA in the presence of chemical substance/absence: YDL233W (gene YDL233W) | The level of expressed mRNA in the presence of chemical substance/absence: YDR071C (gene YDR071C) | The level of expressed mRNA in the presence of chemical substance/absence: YDR281C (gene YDR281C) | level of expressed mRNA in the presence of chemical substance/in its absence (gene YDR410C) | The level of expressed mRNA in the presence of chemical substance/absence: YDR485C (gene YDR485C) | The level of expressed mRNA in the presence of chemical substance/absence: YER092W (gene YER092W) | The level of expressed mRNA in the presence of chemical substance/absence: YFL042C (gene YFL042C) | level of expressed mRNA in the presence of chemical substance/in its absence (gene YGL001C) | level of expressed mRNA in the presence of chemical substance/in its absence (gene YGL134W) | level of expressed mRNA in the presence of chemical substance/in its absence (gene YGL154C) | The level of expressed mRNA in the presence of chemical substance/absence: YGL183C (gene YGL183C) | The level of expressed mRNA in the presence of chemical substance/absence: YGL223C (gene YGL223C) | The level of expressed mRNA in the presence of chemical substance/absence: YGR277C (gene YGR277C)
0.3: The level of expressed mRNA in the presence of chemical substance/absence: YDR133C (gene YDR133C)
2.0: level of expressed mRNA in the presence of chemical substance/in its absence (gene YAR071W)
1.3: level of expressed mRNA in the presence of chemical substance/in its absence (gene YBR029C) | level of expressed mRNA in the presence of chemical substance/in its absence (gene YCR098C) | level of expressed mRNA in the presence of chemical substance/in its absence (gene YDR487C) | level of expressed mRNA in the presence of chemical substance/in its absence (gene YDR502C) | level of expressed mRNA in the presence of chemical substance/in its absence (gene YGL039W) | level of expressed mRNA in the presence of chemical substance/in its absence (gene YGL209W) | level of expressed mRNA in the presence of chemical substance/in its absence (gene YGR282C)
0.4: level of expressed mRNA in the presence of chemical substance/in its absence (gene YDR380W) | level of expressed mRNA in the presence of chemical substance/in its absence (gene YFR015C)
0.6: level of expressed mRNA in the presence of chemical substance/in its absence (gene YAL044C) | level of expressed mRNA in the presence of chemical substance/in its absence (gene YBR014C) | The level of expressed mRNA in the presence of chemical substance/absence: YDR090C (gene YDR090C) | The level of expressed mRNA in the presence of chemical substance/absence: YDR128W (gene YDR128W) | The level of expressed mRNA in the presence of chemical substance/absence: YDR221W (gene YDR221W) | The level of expressed mRNA in the presence of chemical substance/absence: YDR278C (gene YDR278C) | The level of expressed mRNA in the presence of chemical substance/absence: YDR316W (gene YDR316W) | The level of expressed mRNA in the presence of chemical substance/absence: YDR366C (gene YDR366C) | The level of expressed mRNA in the presence of chemical substance/absence: YEL044W (gene YEL044W) | The level of expressed mRNA in the presence of chemical substance/absence: YFR026C (gene YFR026C) | The level of expressed mRNA in the presence of chemical substance/absence: YGL041C (gene YGL041C) | The level of expressed mRNA in the presence of chemical substance/absence: YGL088W (gene YGL088W) | level of expressed mRNA in the presence of chemical substance/in its absence (gene YGL126W) | The level of expressed mRNA in the presence of chemical substance/absence: YGR210C (gene YGR210C) | The level of expressed mRNA in the presence of chemical substance/absence: YGR211W (gene YGR211W) | The level of expressed mRNA in the presence of chemical substance/absence: YGR250C (gene YGR250C) | The level of expressed mRNA in the presence of chemical substance/absence: YGR266W (gene YGR266W)
0.8: The level of expressed mRNA in the presence of chemical substance/absence: YAR064W (gene YAR064W) | level of expressed mRNA in the presence of chemical substance/in its absence (gene YBR023C) | level of expressed mRNA in the presence of chemical substance/in its absence (gene YBR068C) | The level of expressed mRNA in the presence of chemical substance/absence: YCR007C (gene YCR007C) | The level of expressed mRNA in the presence of chemical substance/absence: YDR250C (gene YDR250C) | The level of expressed mRNA in the presence of chemical substance/absence: YDR338C (gene YDR338C) | level of expressed mRNA in the presence of chemical substance/in its absence (gene YEL020C) | level of expressed mRNA in the presence of chemical substance/in its absence (gene YER069W) | The level of expressed mRNA in the presence of chemical substance/absence: YGR237C (gene YGR237C)
0.7: level of expressed mRNA in the presence of chemical substance/in its absence (gene YBL001C) | The level of expressed mRNA in the presence of chemical substance/absence: YBL100C (gene YBL100C) | The level of expressed mRNA in the presence of chemical substance/absence: YBR051W (gene YBR051W) | The level of expressed mRNA in the presence of chemical substance/absence: YBR066C (gene YBR066C) | The level of expressed mRNA in the presence of chemical substance/absence: YBR162C (gene YBR162C) | The level of expressed mRNA in the presence of chemical substance/absence: YBR255W (gene YBR255W) | level of expressed mRNA in the presence of chemical substance/in its absence (gene YCL064C) | level of expressed mRNA in the presence of chemical substance/in its absence (gene YCR037C) | level of expressed mRNA in the presence of chemical substance/in its absence (gene YDR019C) | The level of expressed mRNA in the presence of chemical substance/absence: YDR078C (gene YDR078C) | The level of expressed mRNA in the presence of chemical substance/absence: YDR271C (gene YDR271C) | The level of expressed mRNA in the presence of chemical substance/absence: YDR421W (gene YDR421W) | The level of expressed mRNA in the presence of chemical substance/absence: YDR504C (gene YDR504C) | level of expressed mRNA in the presence of chemical substance/in its absence (gene YGL022W) | The level of expressed mRNA in the presence of chemical substance/absence: YGR198W (gene YGR198W)
1.1: level of expressed mRNA in the presence of chemical substance/in its absence (gene YAL012W) | The level of expressed mRNA in the presence of chemical substance/absence: YAL049C (gene YAL049C) | The level of expressed mRNA in the presence of chemical substance/absence: YBR063C (gene YBR063C) | The level of expressed mRNA in the presence of chemical substance/absence: YDL173W (gene YDL173W) | The level of expressed mRNA in the presence of chemical substance/absence: YDL193W (gene YDL193W) | The level of expressed mRNA in the presence of chemical substance/absence: YDR140W (gene YDR140W) | The level of expressed mRNA in the presence of chemical substance/absence: YDR425W (gene YDR425W) | The level of expressed mRNA in the presence of chemical substance/absence: YGL045W (gene YGL045W) | The level of expressed mRNA in the presence of chemical substance/absence: YGL057C (gene YGL057C) | level of expressed mRNA in the presence of chemical substance/in its absence (gene YGL104C)
1.2: The level of expressed mRNA in the presence of chemical substance/absence: YAL014C (gene YAL014C) | level of expressed mRNA in the presence of chemical substance/in its absence (gene YAL038W) | The level of expressed mRNA in the presence of chemical substance/absence: YBR013C (gene YBR013C) | level of expressed mRNA in the presence of chemical substance/in its absence (gene YBR035C) | level of expressed mRNA in the presence of chemical substance/in its absence (gene YBR111C) | level of expressed mRNA in the presence of chemical substance/in its absence (gene YBR183W) | The level of expressed mRNA in the presence of chemical substance/absence: YBR287W (gene YBR287W) | level of expressed mRNA in the presence of chemical substance/in its absence (gene YBR299W) | level of expressed mRNA in the presence of chemical substance/in its absence (gene YDL022W) | level of expressed mRNA in the presence of chemical substance/in its absence (gene YGL253W) | The level of expressed mRNA in the presence of chemical substance/absence: YGR156W (gene YGR156W) | The level of expressed mRNA in the presence of chemical substance/absence: YGR243W (gene YGR243W)
1.0: The level of expressed mRNA in the presence of chemical substance/absence: YAL017W (gene YAL017W) | level of expressed mRNA in the presence of chemical substance/in its absence (gene YAL054C) | The level of expressed mRNA in the presence of chemical substance/absence: YBR012C (gene YBR012C) | level of expressed mRNA in the presence of chemical substance/in its absence (gene YBR050C) | The level of expressed mRNA in the presence of chemical substance/absence: YBR129C (gene YBR129C) | level of expressed mRNA in the presence of chemical substance/in its absence (gene YBR145W) | The level of expressed mRNA in the presence of chemical substance/absence: YCL056C (gene YCL056C) | The level of expressed mRNA in the presence of chemical substance/absence: YDL046W (gene YDL046W) | level of expressed mRNA in the presence of chemical substance/in its absence (gene YDR009W) | The level of expressed mRNA in the presence of chemical substance/absence: YDR109C (gene YDR109C) | The level of expressed mRNA in the presence of chemical substance/absence: YER182W (gene YER182W) | The level of expressed mRNA in the presence of chemical substance/absence: YGR038W (gene YGR038W) | level of expressed mRNA in the presence of chemical substance/in its absence (gene YGR060W) | The level of expressed mRNA in the presence of chemical substance/absence: YGR293C (gene YGR293C)
0.5: The level of expressed mRNA in the presence of chemical substance/absence: YBR281C (gene YBR281C) | The level of expressed mRNA in the presence of chemical substance/absence: YFR056C (gene YFR056C) | The level of expressed mRNA in the presence of chemical substance/absence: YGR139W (gene YGR139W)

Reference: patent US20050112573A1, “Method of detecting toxic substance” (priority 2001, published 2005)
